In brackets after ≈: the same amount, converted by molar mass. Read-outs that look alike come from different tables or passages of the source. Each block holds one molecule with its values, some of them ahead of it.
How the values were obtained:
[1] = Solid form conversion / physical stability (XRPD); format: physicochemical; conditions: for form conversion in suspension: isopropanol, ethyl acetate, or isopropyl acetate
Procedure: X-ray powder diffraction (XRPD) analysis was carried out on a Stoe Stadi P with Mythen1K detector; Cu-Kα1 radiation; 40 kV and 40 mA tube power; curved Ge monochromator; 0.02° 2θ step size, 12 s step time, 1.5-50.5° 2θ scanning range; detector mode: step scan; 1° 2θ detector step. The sample (about 20 mg) was placed between two acetate foils and clamped in a Stoe transmission sample holder. The sample holder was rotated during the measurement.
X-ray powder diffraction (XRPD) analysis was also carried out on a on a Bruker D8 Advance; Cu-Kα radiation; standard measurement conditions: Bragg-Brentano reflection geometry; 40 kV and 40 mA tube power; LynxEye detector; 0.02° 2θ step size, 37 s step time, 2.5-50.5° 2θ scanning range (about 10 min measurement time. The sample was spread on a silicon single crystal substrate without cavity and flattened to fit to the 0.1 mm depth of the sample holder.
Crystalline, anhydrous Form C material of 3-hydroxy-2-(5-isobutyryl-1-oxo-2,5-diazaspiro[3.4]octan-2-yl)butanamide is not stable in comparison to anhydrous Form A or anhydrous Form B under ambient conditions of temperature and humidity. […] In turn, anhydrous Form A and anhydrous Form B each convert to monohydrate Form MH under the conditions described above.

[2] = system: neuropathic pain associated with diabetic peripheral neuropathy; experiment: Randomized, double-blind, placebo-controlled multiple-dose study in subjects with neuropathic pain associated with diabetic peripheral neuropathy; format: in vivo, human
Procedure: A randomized, double-blind, parallel-group, placebo-controlled, multiple-dose study was conducted to assess the efficacy and safety of NYX-2925 in subjects with neuropathic pain associated with diabetic peripheral neuropathy. The study was to evaluate the efficacy of multiple dose levels of NYX-2925 versus placebo in treating the neuropathic pain associated with diabetic peripheral neuropathy. The study was also to assess the effects of multiple dose levels of NYX-2925 versus placebo on pain characteristics, sleep interference, health status, psychological state, and global improvement, and to assess the safety and tolerability of multiple dose levels of NYX-2925. The study was a 6- to 9-week study, including a 1- to 4-week Screening Period, followed by a 4-week double-blind, randomized, placebo-controlled Treatment Period, and a 1-week Follow-Up Period. Subjects with Type 2 diabetes who had been on stable antidiabetic medication for at least 1 month (or had stable glycemic control with diet and exercise alone) and who had been suffering from painful diabetic peripheral neuropathy in the lower extremities for at least 6 months but not more than 10 years were screened for diabetic peripheral neuropathy using the Michigan Neuropathy Screening Instrument and the Masquerading Disorders Tool. […] Subjects were dispensed acetaminophen to be used as rescue medication, and were instructed to take no more than 2 g/daily (one to two 500-mg caplets every 4 to 6 hours as needed) for DPN pain. Beginning immediately after Visit 1, pain intensity and rescue medication use were recorded in the study-issued handheld device daily at bedtime. Subjects entered their average pain intensity, worst pain intensity, pain on walking, and whether rescue medication was used during the past 24 hours. Pain intensity was recorded using an 11-point NRS, with 0 being no pain and 10 being the worst pain imaginable. Every morning upon awakening, subjects completed the Daily Sleep Interference Scale (DSIS) via their study-issued handheld device. Eligible subjects were randomized to receive either NYX-2925 10 mg daily, NYX-2925 50 mg daily, NYX-2925 200 mg daily, or placebo for 4 weeks in a 1:1:1:1 allocation. Investigators and subjects were masked to the randomization allocation. Subjects were dispensed a 2-week supply of investigational product and instructed to take 2 capsules by mouth once daily. Subjects were also re-dispensed acetaminophen to use as rescue medication for DPN pain; instructions not to exceed 2 g/day were reinforced. The appropriate use of rescue medication was assessed by inventory of the returned caplets, as well as by subject interview. Subjects were instructed to continue entering their average pain intensity, worst pain intensity, pain upon walking, and whether they used rescue medication over the past 24 hours into their study-issued handheld devices every night. Every morning upon awakening, subjects completed the DSIS via their study-issued handheld device. Pain diary compliance was reviewed at each study visit by the study staff, and reporting instructions was reinforced. Quantitative sensory testing was done using the Bedside Sensory Testing Kit. The following scales were completed at the Baseline Visit: Brief Pain Inventory for Diabetic Peripheral Neuropathy (BPI-DPN), the Short-Form McGill Pain Questionnaire version 2 (SF-MPQ-2), the Norfolk Quality of Life Questionnaire-Diabetic Neuropathy (QOL-DN), the HADS, the Insomnia Severity Index, and the S-STS. Subjects returned to the clinic at the end of Week 2 for assessment of compliance with study medication, use of rescue medication, and were dispensed the final 2-week supply of investigational product and rescue medication for DPN pain. Pain diary compliance was reviewed by the study staff, and reporting instructions were reinforced. Adverse events were assessed by asking the subjects a non-leading question. Use of concomitant medications was documented. […]

[3] = Solubility of anhydrous crystalline forms in water and isopropyl acetate at room temperature; format: physicochemical
[4] = 10, 50 or 200 mg by mouth once daily for 4 weeks
[5] = advanced DPN (at least 4 years)
[6] = patients with at least 4 years of DPN duration

SMILES: CC(C)C(=O)N1CCC[C@]12CN([C@H](C(N)=O)[C@@H](C)O)C2=O [NYX-2925, (2S,3R)-3-hydroxy-2-((R)-5-isobutyryl-1-oxo-2,5-diazaspiro[3.4]octan-2-yl)butanamide]
change in daily sleep interference score from baseline ([2]; 50 mg dose, advanced DPN (at least 4 years), at least at the 2, 3 and 4 week points): Statistical significance
change in average pain (NRS) from baseline ([2]; 50 mg dose, advanced DPN (at least 4 years), at least at the 3 and 4 week points): Statistical significance
change from placebo in average daily pain, baseline to week 4, by duration of painful DPN ([2]; 50 mg dose, groups ≥1 to ≥5 yrs): most significant at ≥4 years
Week 4 change vs. baseline in average daily pain (on 10-point NRS) ([2]; 50 mg once daily, patients with advanced DPN): 1.93 points
Week 4 change vs. placebo in average daily pain (on 10-point NRS) ([2]; 50 mg once daily, patients with advanced DPN, p=0.004): 1.21 points
separation from placebo by dose ([2]; 200 mg and 50 mg doses): meaningful separation from placebo
shape of dose response ([2]; 10, 50 and 200 mg doses): inverted-U-shaped dose response
overall AE profile [2, 4]: comparable to placebo
safety and tolerability [2, 4]: safe and well tolerated
serious adverse events (SAEs) [2, 4]: no SAEs
change in pain on walking (NRS) score from baseline [2, 5]: improvement
change in worst pain from baseline [2, 5]: improvement
most active dose level among the three doses tested (10, 50, 200 mg) ([2]; once daily for 4 weeks): 50 mg
separation from placebo on the primary endpoint (change in average daily pain) ([2]; patients not on a concomitant analgesic (n=148), 10, 50 or 200 mg by mouth once daily for 4 weeks): numeric, but not statistically significant, separation from placebo
pain alleviation ([2]; patients with DPN, after four weeks): meaningful pain alleviation
effects on change in average daily pain vs. placebo ([2]; patients with advanced DPN (DPN for ≥4 years, n=127; post-hoc analysis)): significant effects
insomnia severity (secondary endpoint) [2, 6]: Improvement
pain interference (secondary endpoint) [2, 6]: Improvement
pain severity (secondary endpoint) [2, 6]: Improvement
patient global impression of change (PGI-C) (secondary endpoint) [2, 6]: Improvement
quality of life (secondary endpoint) [2, 6]: Improvement
total pain score (secondary endpoint) [2, 6]: Improvement
effect of concomitant analgesic use on treatment benefit ([2]; patients with or without a concomitant analgesic): does not appear to affect treatment benefit
MMRM change in daily sleep interference ([2]; subjects not using analgesic (n=148), 50 mg dose, at the 3 and 4 week points): significance
separation from placebo on the primary endpoint (change in average daily pain) ([2]; total patient population (n=300), 10, 50 or 200 mg by mouth once daily for 4 weeks): numeric, but not statistically significant, separation from placebo

SMILES: CC(C)C(=O)N1CCCC12CN(C(C(N)=O)C(C)O)C2=O (centres unmarked) [3-hydroxy-2-(5-isobutyryl-1-oxo-2,5-diazaspiro[3.4]octan-2-yl)butanamide]
physical stability on storage (XRPD) ([1]; about six weeks in a sealed vial at −20° C.): did not crystallize

SMILES: CC(C)C(=O)N1CCCC12CN(C(C(N)=O)C(C)O)C2=O (centres unmarked) [Form A, 3-hydroxy-2-(5-isobutyryl-1-oxo-2,5-diazaspiro[3.4]octan-2-yl)butanamide]
solubility in isopropyl acetate ([3]; after 10 minutes, 1 hour, and 6 hours at room temperature): about 8 mg/mL
solubility ([3]; isopropyl acetate, 22 °C, organic solvent or mixture, room temperature (about 22° C.), read-out: solubility in isopropyl acetate): ~8 mg/mL (≈ 26.9 mM)
solubility ([3]; water, 22 °C, water, room temperature (about 22° C.), read-out: solubility in water): 54 to 55 mg/mL (≈ 182 to 185 mM)
time to convert to the monohydrate Form MH in the solid phase ([1]; ambient temperature, atmosphere of greater than 5% relative humidity): ≤ 3 days

Further lines, with some results ahead:

stability in comparison to anhydrous Form A or anhydrous Form B ([1]; ambient conditions of temperature and humidity): not stable
form conversion in suspension ([1]; temperatures greater than or equal to 75° C.): converts to anhydrous Form B
form conversion in suspension ([1]; temperatures less than or equal to 50° C.): converts to anhydrous Form A
SMILES: CC(C)C(=O)N1CCCC12CN(C(C(N)=O)C(C)O)C2=O (centres unmarked) [Form C, 3-hydroxy-2-(5-isobutyryl-1-oxo-2,5-diazaspiro[3.4]octan-2-yl)butanamide]

solubility ([3]; isopropyl acetate, organic solvent or mixture, after 10 minutes, 1 hour, and 6 hours at room temperature, read-out: solubility in isopropyl acetate): ~9 mg/mL (≈ 30.3 mM)
solubility at 10 min ([3]; water, after 10 minutes at room temperature): ~54 mg/mL (≈ 182 mM)
solubility at 1 h ([3]; water, after 1 hour at room temperature): ~54 mg/mL (≈ 182 mM)
solubility at 6 h ([3]; water, after 6 hours at room temperature): ~48 mg/mL (≈ 161 mM)
SMILES: CC(C)C(=O)N1CCCC12CN(C(C(N)=O)C(C)O)C2=O (centres unmarked) [Form B, 3-hydroxy-2-(5-isobutyryl-1-oxo-2,5-diazaspiro[3.4]octan-2-yl)butanamide]
conversion to the monohydrate Form MH in the solid state ([1]; ambient temperature, atmosphere of greater than or equal to 50% relative humidity): readily converts to the monohydrate Form MH

Reference: patent US12012413B2, “Methods of treating painful diabetic peripheral neuropathy” (Tenacia Biotechnology (Hong Kong) Co., Limited, priority 2019, dated 2024)
